From patent publication US9655877B2, “Therapeutic methods for treating inflammation and immune system disorders” (priority 2009, dated 2017)

Assays:
Assay type in all cases: cell-based, murine
[1] = tested on: nitrite production in BV-2 cells; assay: LPS-induced nitrite (nitric oxide) production in BV-2 cells, Griess reagent; conditions: 100 ng/ml LPS, 18 hours
Description: Nitrite levels in the culture media were determined using Griess reagent under manufacturer's instructions (Sigma Aldrich, St. Louis, Mo.). Fresh culture media were used as blanks and the nitrite levels were determined by using a standard sodium nitrite curve.
The effect of each extract on nitric oxide production is evaluated according to the procedures illustrated as follows. Briefly, murine microglia cell line BV-2 is maintained in Dulbecco's modified Eagle's minimum essential medium (DMEM) supplemented with 10% FBS and 1% penicillin and streptomycin (Invitrogen Life Technologies, Carlsbad, Calif.) at 37° C. in a humidified atmosphere with 5% CO2 in warm air.
0.1 M cells/ml BV-2 cells are seeded in 24-well plates (0.5 ml in each well). Cells are treated with 0.05% DMSO; 0.05% DMSO and 100 ng/ml LPS; or 100 ng/ml LPS and 50 μg/ml of an LCX extract for 18 hours, respectively. The culture supernatant is collected. The nitric oxide level is measured using the Griess reagent according to standard manufacturer's instructions (Sigma Aldrich, St. Louis, Mo.), and assessed using the standard sodium nitrite curve.
The effect of senkyunolide A (Sen A) and Z-ligustilide (Z-Lig) at various concentrations on LPS-induced nitrite production is further evaluated in this Example. Briefly, 0.1 M cells/ml BV-2 cells are seeded in 24-well plates (0.5 ml in each well). Cells are treated with 0.05% DMSO; 0.05% DMSO and 100 ng/ml LPS; 50 μg/ml Sen A/Z-Lig; or 100 ng/ml LPS and Sen A/Z-Lig at a concentration of 1 μg/ml, 5 μg/ml, 10 μg/ml, 25 μg/ml, and 50 μg/ml for 18 hours, respectively. The culture supernatant is collected. The nitric oxide level is measured using the Griess reagent according to standard manufacturer's instructions (Sigma Aldrich, St. Louis, Mo.), and evaluated using the standard sodium nitrite curve.

[2] = tested on: TNF-α protein production in BV-2 cells; assay: LPS-induced TNF-α protein production in BV-2 cells, ELISA; conditions: 100 ng/ml LPS, 18 hours
Description: To measure the TNF-α level in cell culture supernatants, BV-2 cells were seeded at 1×10^5 cells/ml in the volume of 0.5 ml in 24-well culture plates. They were co-treated with or without 100 ng/ml LPS in the absence or presence of indicated concentrations of bioactive compounds of LCX for 18 h. In addition, PBMac cells were seeded at 1×10^6 cells/ml in the volume of 0.5 ml in 24-well plates. After incubation, the supernatants were collected and TNF-α levels were determined by ELISA according to the manufacturer's instructions (R&D Systems).
The role of senkyunolide A (Sen A) and Z-ligustilide (Z-Lig) in suppressing TNF-α production is further evaluated in this Example. Briefly, 5×10^4 cells/ml BV-2 cells are seeded in 24-well plates (0.5 ml in each well). Cells are treated with 0.05% DMSO; 0.05% DMSO and 100 ng/ml LPS; 50 μg/ml Sen A/Z-Lig; or 100 ng/ml LPS and Sen A/Z-Lig at a concentration of 1 μg/ml, 5 μg/ml, 10 μg/ml, 25 μg/ml, and 50 μg/ml for 18 hours, respectively. The culture supernatant is collected and the level of secreted TNF-α is measured by ELISA.

NF-kB p65 = assay: Nuclear translocation of NF-kB p65 in LPS-stimulated BV-2 cells, Western blot; conditions: 50 μg/ml pretreatment 1 h, 100 ng/ml LPS 30 min
Description: BV-2 cells (2×10^5 cells/ml) were pretreated with either 0.05% DMSO or 50 μg/ml senkyunolide A for 1 h, followed by treatment with 100 ng/ml LPS for another 30 min. (A) Cytoplasmic proteins were extracted and analyzed by Western Blot using antibodies specific for phospho-p38, phospho-JNK, phospho-ERK 1/2 and actin. (B) Nuclear proteins were extracted and analyzed by Western Blot against NF-kB p65 and lamin B antibodies. 10^5 cells/ml BV-2 cells were first pretreated with senkyunolide A for 1 h. After induction by 100 ng/ml LPS for 30 min, the culture medium was discarded. Cytoplasmic proteins and nuclear proteins were extracted separately by buffer A and buffer C as described in our previous report^28. The cell lysates were separated by 10% SDS-polyacrylamide gel electrophoresis and transferred to a nitrocellulose membrane (Schleicher & Schuell, Germany). The cell lysates were incubated with specific antibodies (phospho-MAP kinases, Actin, NF-kB p65 and Lamin B) overnight. After three washes, the membranes were incubated with the corresponding secondary antibodies. The bands were detected using the Enhanced Chemiluminescence System (GE Healthcare, Piscataway, N.J., USA) according to the manufacturer's instructions. The NF-kB pathway plays a key role in the transcriptional regulation of inflammatory mediators. […]

Neuro-2a cells = assay: Conditioned culture medium transfer model (LPS-treated BV-2 supernatant on Neuro-2a), MTT assay; conditions: supernatant of BV-2 cells treated with 100 ng/ml LPS and 50 μg/ml compound 18 h, on Neuro-2a 48 h; LPS only more than 40%
Description: BV-2 cells (3×10^5 cells/ml) were first treated with 100 ng/ml LPS for 18 h, in the presence of either 0.05% DMSO or 50 μg/ml senkyunolide A or Z-ligustilide. After centrifugation, the supernatants from BV-2 cells were transferred to Neuro-2a cells ([…]) for 48 h. Viability of Neuro-2a cells was measured using MTT assays. Results are shown as mean SD from three independent experiments. *p<0.05 compared with DMSO+LPS.
BV-2 cells were seeded at 3×10^5 cells/ml in 12-well culture plates (1 ml in each well). They were co-treated with or without 100 ng/ml LPS, in the presence of 0.05% DMSO, 50 μg/ml senkyunolide A, or 50 μg/ml Z-ligustilide, for 18 h. The supernatants were then collected and centrifuged at 13,200 rpm for 3 min. The resulting supernatants were then transferred to Neuro-2a cells (1×10^5 cells/ml in 24-well culture plates), which were incubated for another 48 h. Cell viability of Neuro-2a cells was measured by MTT assay.
Briefly, to investigate the physiological significance of Sen A and Z-Lig, a conditioned culture medium transfer model, commonly used for studying neuronal cell death induced by microglial activation, was adopted. After BV-2 cells were challenged with LPS, the supernatants were collected and centrifuged. The conditioned culture media were then transferred to Neuro-2a cell cultures.

SMILES: CCCC[C@H]1OC(=O)C2=C1CCC=C2 [senkyunolide A]
- reduction in nitrite production ([1]; 10 μg/ml): approximately 4 fold
- reduction in nitrite production ([1]; 25 μg/ml): ~20 fold
- effect on nitrite production ([1]; 50 μg/ml): almost completely inhibits nitrite production
- reduction in TNF-α production ([2]; 10 μg/ml): approximately 2 fold
- reduction in TNF-α production ([2]; 25 μg/ml): ~4 fold
- reduction in TNF-α production ([2]; 50 μg/ml): ~10 fold
- effect on translocation of NF-kB p65 into the nucleus (NF-kB p65): did not exert an inhibitory effect
- cell death of Neuro-2a cells (Neuro-2a cells): less than 15%
